Calls of active or inactive are those of the source. The rule behind the calls is not given here.
Tested on: CCRIS mutagenicity, Ames/micronucleus/aberration tests
Experiment: CCRIS mutagenicity studies

O=C(O)CBr
mutagenic call (End Point: IN VITRO CHROMOSOMAL ABERRATIONS, Test System: CHL CELLS, Metabolic Activation: NONE): active; positive (structural changes)
mutagenic call (End Point: IN VITRO CHROMOSOMAL ABERRATIONS, Test System: CHL CELLS, Metabolic Activation: RAT, LIVER, S-9, SODIUM PHENOBARBITAL AND 5,6-BENZOFLAVONE): active; positive (structural changes)
mutagenic call (Test System: AMES SALMONELLA TYPHIMURIUM, Strain/Indicator: RSJ100, Metabolic Activation: NONE, Method: PREINCUBATION): inactive; negative
mutagenic call (Test System: AMES SALMONELLA TYPHIMURIUM, Strain/Indicator: RSJ100, Metabolic Activation: RAT LIVER S-9, AROCLOR 1254, Method: PREINCUBATION): inactive; negative
mutagenic call (Test System: AMES SALMONELLA TYPHIMURIUM, Strain/Indicator: TA98, Metabolic Activation: RAT LIVER S-9, AROCLOR 1254, Method: PREINCUBATION): active; positive
mutagenic call (Test System: AMES SALMONELLA TYPHIMURIUM, Strain/Indicator: TA98, Metabolic Activation: RAT LIVER S-9, PHENOBARBITAL AND BETA-NAPHTHOFLAVONE, Method: PREINCUBATION): inactive; negative
mutagenic call (Test System: AMES SALMONELLA TYPHIMURIUM, Strain/Indicator: TA100, Metabolic Activation: NONE, Method: FLUCTUATION TEST): inactive; negative
mutagenic call (Test System: AMES SALMONELLA TYPHIMURIUM, Strain/Indicator: TA100, Metabolic Activation: NONE, Method: PREINCUBATION): active; positive
mutagenic call (Test System: AMES SALMONELLA TYPHIMURIUM, Strain/Indicator: TA100, Metabolic Activation: RAT LIVER S-9, AROCLOR 1254, Method: PREINCUBATION): active; positive
mutagenic call (Test System: AMES SALMONELLA TYPHIMURIUM, Strain/Indicator: TA100, Metabolic Activation: RAT LIVER S-9, PHENOBARBITAL AND BETA-NAPHTHOFLAVONE, Method: PREINCUBATION): inactive; negative
mutagenic call (Test System: AMES SALMONELLA TYPHIMURIUM, Strain/Indicator: TA100, Metabolic Activation: RAT, LIVER, S-9, AROCLOR 1254, Method: FLUCTUATION TEST): active; positive
mutagenic call (Test System: AMES SALMONELLA TYPHIMURIUM, Strain/Indicator: TA1535, Metabolic Activation: NONE, Method: PREINCUBATION): inactive; negative
mutagenic call (Test System: AMES SALMONELLA TYPHIMURIUM, Strain/Indicator: TA1535, Metabolic Activation: RAT LIVER S-9, PHENOBARBITAL AND BETA-NAPHTHOFLAVONE, Method: PREINCUBATION): inactive; negative
mutagenic call (Test System: AMES SALMONELLA TYPHIMURIUM, Strain/Indicator: TA1537, Metabolic Activation: NONE, Method: PREINCUBATION): inactive; negative
mutagenic call (Test System: AMES SALMONELLA TYPHIMURIUM, Strain/Indicator: TA1537, Metabolic Activation: RAT LIVER S-9, PHENOBARBITAL AND BETA-NAPHTHOFLAVONE, Method: PREINCUBATION): inactive; negative
mutagenic call (Test System: E.COLI, Strain/Indicator: WP2UVRA, Metabolic Activation: NONE, Method: PREINCUBATION): inactive; negative
mutagenic call (Test System: E.COLI, Strain/Indicator: WP2UVRA, Metabolic Activation: RAT LIVER S-9, PHENOBARBITAL AND BETA-NAPHTHOFLAVONE, Method: PREINCUBATION): inactive; negative

Source: PubChem BioAssay AID1259407 (Chemical Carcinogenesis Research Information System (CCRIS), 2018)
